Measured values reported in PubChem BioAssay AID2060492 (Molecular Pharmacology Branch, DTP, NCI, 2025).
pIC50: −log10 of the molar value.

Test system: 695427-040-R-J1-PDC complex spheroids, viability percent T/C
Assay: Anticancer human tumor 695427-040-R-J1-PDC patient-derived colon adenocarcinoma cell line growth inhibition [GQUAD]
Conditions: for pIC50: curve of first compound; for viability, T/C: stronger effect = lower value
Procedure, shortened: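 Viability of tumor cells grown as complex spheroids with endothelial and stromal cells, exposed to drug combinations. Top concentration at or near clinical Cmax (else 10 microM), diluted in half-log increments.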

[1] = second compound 0.0316 µM, first compound 0.0316 µM
[2] = second compound 0.0316 µM, first compound 0.1 µM
[3] = second compound 0.0316 µM, first compound 0.316 µM
[4] = second compound 0.0316 µM, first compound 1 µM
[5] = second compound 0.0316 µM, first compound 3.16 µM
[6] = second compound 0.0316 µM, first compound 10 µM
[7] = second compound 0.1 µM, first compound 0.0316 µM
[8] = second compound 0.1 µM, first compound 0.1 µM
[9] = second compound 0.1 µM, first compound 0.316 µM
[10] = second compound 0.1 µM, first compound 1 µM
[11] = second compound 0.1 µM, first compound 3.16 µM
[12] = second compound 0.1 µM, first compound 10 µM
[13] = second compound 0.316 µM, first compound 0.0316 µM
[14] = second compound 0.316 µM, first compound 0.1 µM
[15] = second compound 0.316 µM, first compound 0.316 µM
[16] = second compound 0.316 µM, first compound 1 µM
[17] = second compound 0.316 µM, first compound 3.16 µM
[18] = second compound 0.316 µM, first compound 10 µM
[19] = second compound 1 µM, first compound 0.0316 µM
[20] = second compound 1 µM, first compound 0.1 µM
[21] = second compound 1 µM, first compound 0.316 µM
[22] = second compound 1 µM, first compound 1 µM
[23] = second compound 1 µM, first compound 3.16 µM
[24] = second compound 1 µM, first compound 10 µM
[25] = second compound 3.16 µM, first compound 0.0316 µM
[26] = second compound 3.16 µM, first compound 0.1 µM
[27] = second compound 3.16 µM, first compound 0.316 µM
[28] = second compound 3.16 µM, first compound 1 µM
[29] = second compound 3.16 µM, first compound 3.16 µM
[30] = second compound 3.16 µM, first compound 10 µM
[31] = second compound 10 µM, first compound 0.0316 µM
[32] = second compound 10 µM, first compound 0.1 µM
[33] = second compound 10 µM, first compound 0.316 µM
[34] = second compound 10 µM, first compound 1 µM
[35] = second compound 10 µM, first compound 3.16 µM
[36] = second compound 10 µM, first compound 10 µM
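Note: spheroids exposed to compounds for seven days before readout.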

`C=CCn1c(=O)c2cnc(Nc3ccc(N4CCN(C)CC4)cc3)nc2n1-c1cccc(C(C)(C)O)n1` + Cc1cnc(CNC(=O)c2c(=O)c3ccc(N4CCCN(C)CC4)nc3n3c2sc2ccccc23)cn1 was tested, and the pIC50 (second compound 0.0316 µM) was 5.76, the pIC50 (second compound 0.1 µM) was 5.61 and the pIC50 (second compound 0.316 µM) was 5.29. The pIC50 (second compound 1 µM) was 5.08, the pIC50 (second compound 3.16 µM) was greater than 7.50 and the pIC50 (second compound 10 µM) was greater than 7.50. The viability, T/C [1] was 88.3%, the viability, T/C [2] was 78.8% and the viability, T/C [3] was 73.2%. For the same molecule, the viability, T/C [4] was 51.7%, the viability, T/C [5] was 47% and the viability, T/C [6] was 41.1%. It also gave a viability, T/C [7] of 79.5%, a viability, T/C [8] of 71% and a viability, T/C [9] of 65.2%. The viability, T/C [10] was 49.4%, the viability, T/C [11] was 53.8% and the viability, T/C [12] was 40.8%. For the same molecule, the viability, T/C [13] was 74.8%, the viability, T/C [14] was 55% and the viability, T/C [15] was 67.6%. The viability, T/C [16] was 58.5%, the viability, T/C [17] was 59.3% and the viability, T/C [18] was 40.6%. The viability, T/C [19] was 51.6%, the viability, T/C [20] was 57.2% and the viability, T/C [21] was 62%. For the same molecule, the viability, T/C [22] was 43%, the viability, T/C [23] was 55.2% and the viability, T/C [24] was 49.5%. It also gave a viability, T/C [25] of 32.3%, a viability, T/C [26] of 49.6% and a viability, T/C [27] of 48.6%. For the same molecule, the viability, T/C [28] was 33.4%, the viability, T/C [29] was 28.8% and the viability, T/C [30] was 28.6%. The viability, T/C [31] was 9.19%, the viability, T/C [32] was 15.3% and the viability, T/C [33] was 32.1%. It also gave a viability, T/C [34] of 25%, a viability, T/C [35] of 14.7% and a viability, T/C [36] of 0.75%.
For `Cc1[nH]c2ccccc2c1CCNCc1ccc(/C=C/C(=O)NO)cc1` + Cc1cnc(CNC(=O)c2c(=O)c3ccc(N4CCCN(C)CC4)nc3n3c2sc2ccccc23)cn1, the pIC50 (second compound 0.0316 µM) was less than 6.50, the pIC50 (second compound 0.1 µM) was less than 6.50 and the pIC50 (second compound 0.316 µM) was less than 6.50. For the same molecule, the pIC50 (second compound 1 µM) was less than 6.50, the pIC50 (second compound 3.16 µM) was greater than 9.00 and the pIC50 (second compound 10 µM) was greater than 9.00. It also gave a viability, T/C (second compound 0.0316 µM, first compound 0.000999 µM) of 108%, a viability, T/C (second compound 0.0316 µM, first compound 0.00316 µM) of 89.4% and a viability, T/C (second compound 0.0316 µM, first compound 0.00999 µM) of 105%. The viability, T/C [1] was 87.8%, the viability, T/C (second compound 0.0316 µM, first compound 0.0999 µM) was 86.9% and the viability, T/C [3] was 80.5%. The viability, T/C (second compound 0.1 µM, first compound 0.000999 µM) was 90.7%, the viability, T/C (second compound 0.1 µM, first compound 0.00316 µM) was 84% and the viability, T/C (second compound 0.1 µM, first compound 0.00999 µM) was 84.3%. The viability, T/C [7] was 80.5%, the viability, T/C (second compound 0.1 µM, first compound 0.0999 µM) was 94.8% and the viability, T/C [9] was 65.5%. It also gave a viability, T/C (second compound 0.316 µM, first compound 0.000999 µM) of 74.9%, a viability, T/C (second compound 0.316 µM, first compound 0.00316 µM) of 80.8% and a viability, T/C (second compound 0.316 µM, first compound 0.00999 µM) of 85.5%. For the same molecule, the viability, T/C [13] was 85%, the viability, T/C (second compound 0.316 µM, first compound 0.0999 µM) was 90.4% and the viability, T/C [15] was 58.1%. It also gave a viability, T/C (second compound 1 µM, first compound 0.000999 µM) of 50.9%, a viability, T/C (second compound 1 µM, first compound 0.00316 µM) of 73.3% and a viability, T/C (second compound 1 µM, first compound 0.00999 µM) of 69.2%. For the same molecule, the viability, T/C [19] was 66.6%, the viability, T/C (second compound 1 µM, first compound 0.0999 µM) was 67.5% and the viability, T/C [21] was 39%. It also gave a viability, T/C (second compound 3.16 µM, first compound 0.000999 µM) of 41.6%, a viability, T/C (second compound 3.16 µM, first compound 0.00316 µM) of 51.4% and a viability, T/C (second compound 3.16 µM, first compound 0.00999 µM) of 52.9%. It also gave a viability, T/C [25] of 46.1%, a viability, T/C (second compound 3.16 µM, first compound 0.0999 µM) of 43.1% and a viability, T/C [27] of 9.89%. For the same molecule, the viability, T/C (second compound 10 µM, first compound 0.000999 µM) was 21.6%, the viability, T/C (second compound 10 µM, first compound 0.00316 µM) was 31.5% and the viability, T/C (second compound 10 µM, first compound 0.00999 µM) was 32%. For the same molecule, the viability, T/C [31] was 31.1%, the viability, T/C (second compound 10 µM, first compound 0.0999 µM) was 14.5% and the viability, T/C [33] was 0.3%.
Molecule `O=C(NO)c1cnc(N2CCN(S(=O)(=O)c3ccc4ccccc4c3)CC2)nc1` + Cc1cnc(CNC(=O)c2c(=O)c3ccc(N4CCCN(C)CC4)nc3n3c2sc2ccccc23)cn1 has a pIC50 (second compound 0.0316 µM) of 6.38, a pIC50 (second compound 0.1 µM) of 6.35 and a pIC50 (second compound 0.316 µM) of 6.55. It also gave a pIC50 (second compound 1 µM) of 6.76, a pIC50 (second compound 3.16 µM) greater than 7.50 and a pIC50 (second compound 10 µM) greater than 7.50. The viability, T/C [1] was 91.1%, the viability, T/C [2] was 78.5% and the viability, T/C [3] was 64.4%. For the same molecule, the viability, T/C [4] was 6.15%, the viability, T/C [5] was 0.22% and the viability, T/C [6] was 0.22%. For the same molecule, the viability, T/C [7] was 87.2%, the viability, T/C [8] was 65.5% and the viability, T/C [9] was 68.3%. For the same molecule, the viability, T/C [10] was 7.35%, the viability, T/C [11] was 0.34% and the viability, T/C [12] was 0.28%. For the same molecule, the viability, T/C [13] was 85.3%, the viability, T/C [14] was 70.1% and the viability, T/C [15] was 49.8%. It also gave a viability, T/C [16] of 6.3%, a viability, T/C [17] of 0.18% and a viability, T/C [18] of 0.19%. It also gave a viability, T/C [19] of 56.4%, a viability, T/C [20] of 58.3% and a viability, T/C [21] of 41.7%. For the same molecule, the viability, T/C [22] was 0.29%, the viability, T/C [23] was 0.1% and the viability, T/C [24] was 0.17%. It also gave a viability, T/C [25] of 48.4%, a viability, T/C [26] of 45.6% and a viability, T/C [27] of 23.1%. For the same molecule, the viability, T/C [28] was 0.14%, the viability, T/C [29] was 0.11% and the viability, T/C [30] was 0.12%. The viability, T/C [31] was 24.2%, the viability, T/C [32] was 13.8% and the viability, T/C [33] was 0.3%. For the same molecule, the viability, T/C [34] was 0.15%, the viability, T/C [35] was 0.17% and the viability, T/C [36] was 0.18%.
